≈ marks a conversion by molar mass, not a printed value.
Key:
Assay in all cases: ≥ marks a high value that may be exact or a test limit, other limits are often not marked, values filed in µg/mL are converted to µM
[1] = test system: Salmonella enterica subsp. enterica serovar Pullorum ATCC 7913
[2] = test system: Staphylococcus aureus ATCC 29213
Streptococcus agalactiae = test system: Streptococcus agalactiae
[3] = test system: Escherichia coli ATCC 25922
[4] = test system: Salmonella enterica subsp. enterica serovar Typhimurium ATCC 14028
[5] = test system: Pseudomonas aeruginosa ATCC 27853
[6] = test system: Streptococcus thermophilus YM-C
[7] = test system: Staphylococcus epidermidis ATCC 12228
[8] = test system: Staphylococcus aureus ATCC 25923
[9] = test system: Salmonella enterica subsp. enterica serovar Typhimurium C77-31
[10] = test system: Lacticaseibacillus rhamnosus 7469
[11] = test system: Streptococcus agalactiae CICC 10465
Escherichia coli 078 = test system: Escherichia coli 078
Escherichia coli UB1005 = test system: Escherichia coli UB1005
[12] = test system: Enterobacter cloacae HNTCC 53001
[13] = test system: Enterococcus faecalis ATCC 29212
[14] = test system: Staphylococcus aureus NCTC 8325
[15] = test system: Staphylococcus epidermidis RP62A
[16] = test system: Candida albicans ATCC 90028
[17] = test system: Proteus mirabilis ATCC 25933
[18] = test system: Klebsiella pneumoniae KK3 9904
Bacillus subtilis 168 = test system: Bacillus subtilis 168
[19] = test system: Micrococcus luteus CCM 144
Escherichia coli B = test system: Escherichia coli B
Staphylococcus aureus = test system: Staphylococcus aureus
[20] = test system: Candida albicans F7-39/IDE99
Pseudomonas aeruginosa = test system: Pseudomonas aeruginosa
[21] = test system: Staphylococcus epidermidis C621
Escherichia coli DC2 = test system: Escherichia coli DC2
[22] = test system: Corynebacterium xerosis C875

CC[C@H](C)[C@H](NC(=O)[C@H](CC(C)C)NC(=O)[C@@H](NC(=O)[C@@H](N)CC(=O)O)[C@@H](C)CC)C(=O)N[C@H](C(=O)N[C@H](C(=O)NCC(=O)NCC(=O)N[C@@H](CCCCN)C(=O)N[C@@H](CC(=O)O)C(=O)N[C@@H](CCCN=C(N)N)C(=O)N[C@@H](CCCCN)C(=O)N[C@@H](CCCCN)C(=O)N[C@@H](CCCN=C(N)N)C(=O)N[C@@H](CCCN=C(N)N)C(=O)N[C@@H](CCCN=C(N)N)C(N)=O)C(C)C)[C@@H](C)CC [DILIIVGGKDRKKRRR]
MIC [1]: 8 µM (≈ 15.4 µg/mL)
MIC [2]: 4 µM (≈ 7.69 µg/mL)
MIC (Streptococcus agalactiae): 8 µM (≈ 15.4 µg/mL)
MIC [3]: 8 µM (≈ 15.4 µg/mL)
MIC [4]: > 64 µM
MIC [5]: > 64 µM
MIC [6]: ≥ 64 µM
MIC [7]: 4 µM (≈ 7.69 µg/mL)
MIC [8]: > 64 µM
MIC [9]: ≥ 64 µM
MIC [10]: ≥ 64 µM
MIC [11]: 4 µM (≈ 7.69 µg/mL)
MIC (Escherichia coli 078): ≥ 32 µM
MIC (Escherichia coli UB1005): ≥ 32 µM

CC[C@H](C)[C@H](NC(=O)[C@H](CC(C)C)NC(=O)[C@@H](NC(=O)[C@@H](N)CC(=O)O)[C@@H](C)CC)C(=O)N[C@H](C(=O)N[C@H](C(=O)NCC(=O)NCC(=O)N[C@@H](CCCCN)C(=O)N[C@@H](CCCN=C(N)N)C(=O)N[C@@H](CCCN=C(N)N)C(=O)N[C@@H](CCCN=C(N)N)C(N)=O)C(C)C)[C@@H](C)CC [DILIIVGGKRRR]
MIC [1]: ≥ 64 µM
MIC [2]: > 64 µM
MIC (Streptococcus agalactiae): 5.66 µM (≈ 7.89 µg/mL)
MIC [3]: > 64 µM
MIC [4]: > 64 µM
MIC [5]: > 64 µM
MIC [6]: ≥ 64 µM
MIC [7]: > 64 µM
MIC [8]: > 64 µM
MIC [9]: ≥ 64 µM
MIC [10]: ≥ 64 µM
MIC [11]: 8 µM (≈ 11.2 µg/mL)
MIC (Escherichia coli 078): ≥ 64 µM
MIC (Escherichia coli UB1005): ≥ 64 µM

CC[C@H](C)[C@H](NC(=O)[C@H](CC(C)C)NC(=O)[C@@H](NC(=O)[C@@H](N)CC(=O)O)[C@@H](C)CC)C(=O)N[C@H](C(=O)N[C@H](C(=O)NCC(=O)NCC(=O)N[C@@H](CCCN=C(N)N)C(=O)N[C@@H](CCCN=C(N)N)C(=O)N[C@@H](CCCN=C(N)N)C(=O)N[C@@H](CCCN=C(N)N)C(=O)N[C@@H](CCCN=C(N)N)C(=O)N[C@@H](CCCN=C(N)N)C(=O)N[C@@H](CCCN=C(N)N)C(=O)N[C@@H](CCCN=C(N)N)C(N)=O)C(C)C)[C@@H](C)CC [DILIIVGGRRRRRRRR]
MIC [1]: 8 µM (≈ 16.4 µg/mL)
MIC [2]: 2 µM (≈ 4.1 µg/mL)
MIC (Streptococcus agalactiae): 5.66 µM (≈ 11.6 µg/mL)
MIC [3]: 4 µM (≈ 8.19 µg/mL)
MIC [4]: > 64 µM
MIC [5]: 8 µM (≈ 16.4 µg/mL)
MIC [6]: ≥ 64 µM
MIC [7]: 8 µM (≈ 16.4 µg/mL)
MIC [8]: 4 µM (≈ 8.19 µg/mL)
MIC [9]: ≥ 64 µM
MIC [10]: ≥ 64 µM
MIC [11]: 4 µM (≈ 8.19 µg/mL)
MIC (Escherichia coli 078): ≥ 32 µM
MIC (Escherichia coli UB1005): 8 µM (≈ 16.4 µg/mL)

CC[C@H](C)[C@H](NC(=O)CNC(=O)[C@H](CCC(N)=O)NC(=O)[C@H](Cc1ccccc1)NC(=O)[C@@H](NC(=O)[C@H](CCCCN)NC(=O)[C@H](CCCCN)NC(=O)[C@H](CC(C)C)NC(=O)[C@H](C)NC(=O)[C@H](CCCCN)NC(=O)[C@H](CC(C)C)NC(=O)CN)C(C)C)C(=O)N[C@@H](Cc1cnc[nH]1)C(=O)N[C@@H](CCCCN)C(=O)N[C@@H](C)C(=O)N[C@H](C(=O)N[C@@H](CCCCN)C(=O)N[C@@H](CC(C)C)C(=O)N[C@H](C(=O)N[C@@H](CC(N)=O)C(=O)N[C@@H](CC(N)=O)C(=O)N[C@@H](Cc1cnc[nH]1)C(=O)N[C@H](C(=O)N[C@@H](CCC(N)=O)C(=O)O)C(C)C)[C@@H](C)CC)[C@@H](C)CC [GLKALKKVFQGIHKAIKLINNHVQ]
MIC [3]: 5 µM (≈ 13.5 µg/mL)
MIC [5]: 10 µM (≈ 27 µg/mL)
MIC [12]: 10 µM (≈ 27 µg/mL)
MIC [13]: > 80 µM
MIC [14]: ≥ 40 µM
MIC [15]: 20 µM (≈ 54 µg/mL)
MIC [16]: ≥ 80 µM
MIC [17]: ≥ 80 µM
MIC [18]: 5 µM (≈ 13.5 µg/mL)

CC[C@H](C)[C@H](NC(=O)[C@H](CC(C)C)NC(=O)[C@H](CCCCN)NC(=O)[C@@H](NC(=O)[C@@H](NC(=O)[C@H](Cc1cnc[nH]1)NC(=O)[C@@H]1CCCN1C(=O)[C@H](CC(C)C)NC(=O)[C@@H](NC(=O)[C@H](CCCCN)NC(=O)[C@H](C)NC(=O)[C@H](CC(C)C)NC(=O)[C@H](CC(C)C)NC(=O)[C@H](CCCCN)NC(=O)[C@H](C)NC(=O)[C@H](CCSC)NC(=O)CN)C(C)C)C(C)C)C(C)C)C(=O)N[C@@H](CCCCN)C(=O)O [GMAKLLAKVLPHVVKLIK]
MIC (Bacillus subtilis 168): 1.3 µM (≈ 2.55 µg/mL)
MIC [19]: 0.8 µM (≈ 1.57 µg/mL)
MIC (Escherichia coli B): 1.5 µM (≈ 2.94 µg/mL)
MIC (Staphylococcus aureus): 2.7 µM (≈ 5.29 µg/mL)
MIC [20]: 13.1 µM (≈ 25.7 µg/mL)
MIC (Pseudomonas aeruginosa): 17.5 µM (≈ 34.3 µg/mL)

CC[C@H](C)[C@H](NC(=O)[C@H](CC(=O)O)NC(=O)[C@@H](NC(=O)[C@@H](NC(=O)CN)C(C)C)C(C)C)C(=O)N[C@@H](CC(C)C)C(=O)N[C@@H](CCCCN)C(=O)NCC(=O)N[C@@H](C)C(=O)N[C@@H](C)C(=O)N[C@@H](CCCCN)C(=O)N[C@@H](CC(=O)O)C(=O)N[C@@H](CC(C)C)C(=O)N[C@@H](C)C(=O)NCC(=O)N[C@@H](Cc1c[nH]cn1)C(=O)N[C@@H](CC(C)C)C(=O)N[C@@H](C)C(=O)N[C@H](C(=O)N[C@@H](CCCCN)C(=O)N[C@H](C(=O)N[C@@H](CCSC)C(=O)N[C@@H](CC(N)=O)C(=O)N[C@@H](CCCCN)C(=O)N[C@@H](CC(C)C)C(N)=O)C(C)C)[C@@H](C)O [GVVDILKGAAKDLAGHLATKVMNKL]
MIC [3]: 50 µM (≈ 128 µg/mL)
MIC [5]: 100 µM (≈ 256 µg/mL)
MIC [12]: ≥ 50 µM
MIC [13]: > 200 µM
MIC [14]: ≥ 200 µM
MIC [15]: ≥ 200 µM
MIC [16]: ≥ 200 µM
MIC [17]: ≥ 200 µM
MIC [18]: ≥ 100 µM

NCCCC[C@H](NC(=O)[C@H](CCCCN)NC(=O)[C@H](CCCN=C(N)N)NC(=O)[C@H](CCC(=O)O)NC(=O)[C@@H](N)CCCCN)C(=O)N[C@@H](CCCN=C(N)N)C(=O)N[C@@H](CCCN=C(N)N)C(=O)N[C@@H](CCCN=C(N)N)C(N)=O [KERKKRRR]
MIC [1]: ≥ 64 µM
MIC [2]: > 64 µM
MIC (Streptococcus agalactiae): ≥ 64 µM
MIC [3]: > 64 µM
MIC [4]: > 64 µM
MIC [5]: > 64 µM
MIC [6]: ≥ 64 µM
MIC [7]: > 64 µM
MIC [8]: > 64 µM
MIC [9]: ≥ 64 µM
MIC [10]: ≥ 64 µM
MIC [11]: ≥ 64 µM
MIC (Escherichia coli 078): ≥ 64 µM
MIC (Escherichia coli UB1005): ≥ 64 µM

CC[C@H](C)[C@H](NC(=O)[C@H](C)NC(=O)[C@H](C)NC(=O)[C@H](C)NC(=O)[C@H](CCCCN)NC(=O)[C@@H](N)CCCCN)C(=O)N[C@@H](C)C(=O)N[C@@H](C)C(=O)N[C@@H](C)C(=O)N[C@@H](C)C(=O)N[C@@H](C)C(=O)N[C@H](C(=O)N[C@@H](C)C(=O)N[C@@H](C)C(=O)N[C@@H](Cc1c[nH]c2ccccc12)C(=O)N[C@@H](C)C(=O)N[C@@H](C)C(=O)N[C@H](C(=O)N[C@@H](C)C(=O)N[C@@H](C)C(=O)N[C@@H](C)C(=O)N[C@@H](CCCCN)C(=O)N[C@@H](CCCCN)C(=O)N[C@@H](CCCCN)C(=O)N[C@@H](CCCCN)C(N)=O)[C@@H](C)CC)[C@@H](C)CC [KKAAAIAAAAAIAAWAAIAAAKKKK]
MIC [21]: 4 µM (≈ 9.51 µg/mL)
MIC (Escherichia coli DC2): 16 µM (≈ 38 µg/mL)
MIC [22]: 0.25 µM (≈ 0.594 µg/mL)
MIC (Escherichia coli UB1005): ≥ 32 µM

CC[C@H](C)[C@H](NC(=O)[C@H](CCCCN)NC(=O)CNC(=O)[C@H](Cc1c[nH]c2ccccc12)NC(=O)[C@H](CC(N)=O)NC(=O)[C@@H](N)CC(C)C)C(=O)N[C@@H](CC(C)C)C(=O)N[C@@H](CCCCN)C(=O)N[C@@H](Cc1cnc[nH]1)C(=O)N[C@H](C(=O)N[C@H](C(=O)N[C@@H](CCCCN)C(N)=O)[C@@H](C)CC)[C@@H](C)CC [LNWGKILKHIIK]
MIC (Bacillus subtilis 168): 1.7 µM (≈ 2.49 µg/mL)
MIC [19]: 2.2 µM (≈ 3.22 µg/mL)
MIC (Escherichia coli B): 4 µM (≈ 5.85 µg/mL)
MIC (Staphylococcus aureus): 8.7 µM (≈ 12.7 µg/mL)
MIC [20]: 7.3 µM (≈ 10.7 µg/mL)
MIC (Pseudomonas aeruginosa): 20.8 µM (≈ 30.4 µg/mL)

Reference: DBAASP
